Active and inactive are the calls of the source.
How the values were obtained:
[1] = Luminescence Cell-Based Dose Confirmation HTS to Identify Inhibitors of Platelet Dense Granule Release. [Related pubchem assays: 1663 (Primary HTS), 1678 (Summary of Project)]; format: functional
[2] = biological target: Luciferin 4-monooxygenase (Photinus pyralis, UniProt P08659); test: inhibition of purified Photinus pyralis luciferase – biochemical, luminescence, dose response (AID 1891)
[3] = biological target: T1, Rac GTPase-activating protein 1 (Homo sapiens, UniProt Q9H0H5); test: blockers of MgcRacGAP-driven Rac1 GTP hydrolysis – biochemical, ADP Hunter fluorescence, primary and confirmatory, confirmation (AID 624330); format: functional
T1 sequence (Q9H0H5 whole entry): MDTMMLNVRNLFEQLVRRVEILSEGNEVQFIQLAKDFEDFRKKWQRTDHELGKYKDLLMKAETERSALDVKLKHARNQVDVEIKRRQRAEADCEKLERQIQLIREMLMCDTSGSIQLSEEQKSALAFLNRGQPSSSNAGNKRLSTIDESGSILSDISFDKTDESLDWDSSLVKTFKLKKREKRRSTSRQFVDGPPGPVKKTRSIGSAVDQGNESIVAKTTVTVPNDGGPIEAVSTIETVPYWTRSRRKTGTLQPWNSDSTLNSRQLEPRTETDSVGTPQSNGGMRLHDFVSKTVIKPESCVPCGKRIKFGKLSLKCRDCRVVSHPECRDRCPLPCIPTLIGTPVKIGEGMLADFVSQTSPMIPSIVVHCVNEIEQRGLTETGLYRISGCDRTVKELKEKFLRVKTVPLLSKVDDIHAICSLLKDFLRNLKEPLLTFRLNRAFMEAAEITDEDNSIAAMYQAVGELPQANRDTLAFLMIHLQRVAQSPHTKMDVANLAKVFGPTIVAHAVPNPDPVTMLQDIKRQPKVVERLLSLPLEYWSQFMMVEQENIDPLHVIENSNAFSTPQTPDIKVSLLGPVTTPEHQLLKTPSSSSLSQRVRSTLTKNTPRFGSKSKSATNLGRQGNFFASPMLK

[4] = biological target: T2, Corticotropin-releasing factor receptor 2/Corticotropin-releasing factor-binding protein (Homo sapiens, UniProt P24387+Q13324); test: Dose Response confirmation of uHTS hits for small molecule antagonists of the CRF-binding protein and CRF-R2 receptor complex.; format: functional; settings: read-out: IC50_Mean
T2 sequence (Q13324 whole entry): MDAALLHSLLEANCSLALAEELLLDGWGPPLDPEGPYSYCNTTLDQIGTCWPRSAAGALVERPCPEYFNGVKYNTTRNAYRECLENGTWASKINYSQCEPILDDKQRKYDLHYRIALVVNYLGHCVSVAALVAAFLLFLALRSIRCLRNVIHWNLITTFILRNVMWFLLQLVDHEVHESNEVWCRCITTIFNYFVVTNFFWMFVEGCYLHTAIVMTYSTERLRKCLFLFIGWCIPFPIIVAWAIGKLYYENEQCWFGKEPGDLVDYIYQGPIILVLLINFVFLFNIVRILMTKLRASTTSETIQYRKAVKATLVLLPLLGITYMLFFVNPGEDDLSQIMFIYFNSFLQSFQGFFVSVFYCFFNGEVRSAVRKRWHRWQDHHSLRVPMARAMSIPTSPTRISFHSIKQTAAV
T2 sequence (P24387 whole entry): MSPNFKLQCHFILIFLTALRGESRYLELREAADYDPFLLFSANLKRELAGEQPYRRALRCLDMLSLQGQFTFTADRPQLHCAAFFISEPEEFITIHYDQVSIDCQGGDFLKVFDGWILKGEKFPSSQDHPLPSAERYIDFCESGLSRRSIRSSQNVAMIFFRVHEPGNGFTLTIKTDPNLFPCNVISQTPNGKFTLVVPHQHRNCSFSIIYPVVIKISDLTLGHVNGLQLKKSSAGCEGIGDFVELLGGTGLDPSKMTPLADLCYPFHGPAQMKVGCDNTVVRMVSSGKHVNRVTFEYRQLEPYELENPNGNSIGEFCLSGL

[5] = biological target: T2, Corticotropin-releasing factor receptor 2/Corticotropin-releasing factor-binding protein; test: activators of CRF receptor 2 with binding protein – uHTS hits, confirmation (AID 602473); format: functional; settings: read-out: EC50_Mean
cells = format: functional
[6] = biological target: T3, Ubiquitin-conjugating enzyme E2 N (Homo sapiens, UniProt P61088); format: functional;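 note: Dose-response confirmation in a TR-FRET assay detecting UBC13-driven polyubiquitin chain formation, inhibition measured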
T3 sequence (P61088 whole entry): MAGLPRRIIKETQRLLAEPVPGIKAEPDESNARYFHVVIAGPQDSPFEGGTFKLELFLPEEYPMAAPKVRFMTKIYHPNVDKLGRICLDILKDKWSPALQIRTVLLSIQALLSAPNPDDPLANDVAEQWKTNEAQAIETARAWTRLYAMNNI

[7] = viability of uninfected HEp-2 cells – cell-based, HTS, cytotoxicity control for RSV inhibitor project, dose response (AID 2410); format: functional; settings: human respiratory syncytial virus
[8] = biological target: T4, Carboxy-terminal domain RNA polymerase II polypeptide A small phosphatase 1 (Homo sapiens, UniProt Q9GZU7); test: CTDSP1 inhibitors, concentration-response, biochemical, absorbance readout, ultra-high-throughput screen actives (AID 540297); format: functional
T4 sequence (Q9GZU7 whole entry): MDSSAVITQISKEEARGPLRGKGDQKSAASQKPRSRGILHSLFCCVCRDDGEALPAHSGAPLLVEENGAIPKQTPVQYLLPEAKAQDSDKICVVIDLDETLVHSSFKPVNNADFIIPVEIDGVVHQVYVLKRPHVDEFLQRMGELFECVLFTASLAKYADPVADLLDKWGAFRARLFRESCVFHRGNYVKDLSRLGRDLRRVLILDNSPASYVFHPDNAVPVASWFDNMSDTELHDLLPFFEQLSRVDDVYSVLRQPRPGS

[9] = microbe, parasite or virus in culture; format: functional; settings: Mycobacterium tuberculosis
Streptokinase A = biological target: T5, Streptokinase A (Streptococcus pyogenes serotype M1, UniProt P10520); test: viability-normalized secreted streptokinase activity reduction – plasminogen activation absorbance, OD405, dose response (AID 1914); format: functional, Streptococcus pyogenes M1 GAS;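 note: secreted streptokinase activity via plasminogen activation per viability signal from cell pellet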
T5 sequence (P10520 whole entry): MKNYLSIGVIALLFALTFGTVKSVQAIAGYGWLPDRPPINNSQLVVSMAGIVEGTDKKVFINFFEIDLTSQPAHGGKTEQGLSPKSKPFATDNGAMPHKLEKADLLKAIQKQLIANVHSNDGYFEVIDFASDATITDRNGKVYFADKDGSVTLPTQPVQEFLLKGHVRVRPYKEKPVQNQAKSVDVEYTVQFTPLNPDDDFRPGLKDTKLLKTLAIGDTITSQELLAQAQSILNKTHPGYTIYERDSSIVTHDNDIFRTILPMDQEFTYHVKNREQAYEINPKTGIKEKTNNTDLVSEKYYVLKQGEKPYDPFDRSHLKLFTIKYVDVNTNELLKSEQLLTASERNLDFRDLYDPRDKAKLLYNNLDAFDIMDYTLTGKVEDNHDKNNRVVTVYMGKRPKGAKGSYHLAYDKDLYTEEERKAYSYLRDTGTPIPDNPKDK

[10] = tested on: Streptococcus sp. 'group A'; test: Streptococcus pyogenes SK(-)GAS viability under kanamycin – luminescence, BacTiterGlo, confirmation, counter-screen for streptokinase expression inhibitor project, dose response (AID 1900); format: functional, organism-based
[11] = Luminescence Cell-Based Dose Retest to Confirm Inhibitors of Cancer Stem Cells. [Related pubchem assays (depositor defined):AID2717, AID2721]; format: functional; settings: Homo sapiens
Streptococcus = test: GAS UMAA2166 growth inhibition – luminescence, BacTiterGlo, counter-screen for streptokinase expression inhibitor project, dose response (AID 1915); format: functional, organism-based;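 note: potency for reduction of bacterial viability or growth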
[12] = NIH-3T3 fibroblast cytotoxicity, dose response, cytotoxicity control, cell-based, fluorescence, Alamar Blue, secondary assay (AID 2327); format: functional;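 note: NIH-3T3 mouse fibroblasts cultured with fluconazole at 8 µg/mL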
[13] = fluconazole-exposed Candida albicans growth modulators – fluorescence, retest, confirmation (AID 2467); format: functional, cell-based
Paired box protein Pax-8 = Paired box protein Pax-8 (Homo sapiens, UniProt Q06710); test: PAX8 transcriptional activity inhibition in RMG-I – RMG-I cells, luciferase, cherry-pick, dose response (AID 687027); format: functional, cell-based;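 note: luciferase reporter driven by Pax8 target thyroperoxidase promoter measured by SteadyGlo luminescence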
Sequence of Paired box protein Pax-8 (Q06710 whole entry): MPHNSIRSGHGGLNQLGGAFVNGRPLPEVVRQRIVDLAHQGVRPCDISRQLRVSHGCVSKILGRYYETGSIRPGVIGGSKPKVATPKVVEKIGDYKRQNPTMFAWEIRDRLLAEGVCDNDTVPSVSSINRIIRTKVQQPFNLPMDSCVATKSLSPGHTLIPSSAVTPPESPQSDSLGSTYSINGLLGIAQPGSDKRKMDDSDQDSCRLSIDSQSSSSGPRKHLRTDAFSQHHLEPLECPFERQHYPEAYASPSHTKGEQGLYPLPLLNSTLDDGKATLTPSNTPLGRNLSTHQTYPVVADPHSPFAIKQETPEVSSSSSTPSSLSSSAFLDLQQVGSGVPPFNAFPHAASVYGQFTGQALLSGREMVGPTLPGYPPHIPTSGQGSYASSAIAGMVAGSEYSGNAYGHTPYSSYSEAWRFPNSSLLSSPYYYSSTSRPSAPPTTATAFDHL

Sequence of Luciferin 4-monooxygenase (P08659 whole entry): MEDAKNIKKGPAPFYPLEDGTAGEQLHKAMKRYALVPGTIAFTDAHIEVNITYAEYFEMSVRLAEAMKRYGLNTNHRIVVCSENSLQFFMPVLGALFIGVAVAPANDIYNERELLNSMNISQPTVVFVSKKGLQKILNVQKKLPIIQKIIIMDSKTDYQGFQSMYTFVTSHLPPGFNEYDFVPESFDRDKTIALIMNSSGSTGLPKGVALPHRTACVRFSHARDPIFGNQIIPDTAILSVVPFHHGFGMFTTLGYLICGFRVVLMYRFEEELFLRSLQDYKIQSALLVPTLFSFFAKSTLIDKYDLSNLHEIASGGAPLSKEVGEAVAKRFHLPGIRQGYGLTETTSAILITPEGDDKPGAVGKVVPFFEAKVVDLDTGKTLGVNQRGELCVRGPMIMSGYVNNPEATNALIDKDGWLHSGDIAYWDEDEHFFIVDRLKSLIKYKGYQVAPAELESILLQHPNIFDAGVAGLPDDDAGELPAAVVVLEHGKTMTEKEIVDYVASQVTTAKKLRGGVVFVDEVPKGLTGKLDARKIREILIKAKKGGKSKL

Nc1ccc(-c2nc3ccccc3o2)cc1
EC50 [1]: > 112 µM (not active) | EC50 [2]: 51.5 µM (active)

O=S(=O)(c1cccc(-c2nnc(SC(F)F)n2-c2ccccc2)c1)N1CCCCC1
EC50 [1]: > 112 µM (not active) | EC50 [2]: > 112 µM (not active)

O=C(COc1ccccc1)N1CCN(C2CCCC2)CC1
IC50 [3]: 127 µM (active)

O=C(COc1cccc2c1CCN(Cc1ccc(Br)cc1)C2=O)NCc1ccco1
IC50 [4]: > 47.1 µM (inactive) | EC50 [5]: > 53 µM (inactive)

CCOC(=O)c1ccc(COC(=O)c2ccc(-c3nnc(-c4ccccc4)o3)cc2)o1
IC50 (cells): > 50 µM (active) | EC50 [1]: 8.77 µM (active) | EC50 [2]: 28.5 µM (active)

CCCC(=O)NC(=S)Nc1cccc2c(O)cccc12
IC50 [3]: 47.7 µM (active)

COc1ccc(CCNC(=O)c2cc3c(=O)n4ccccc4nc3n(Cc3ccco3)c2=N)cc1OC
EC50 [1]: 44 µM (active) | EC50 [2]: > 112 µM (not active)

Cc1ccccc1CN1CCC(CNC(=O)C2CCCN(c3ncnc4c3nc3n4CCCCC3)C2)CC1 (configuration not stated)
IC50 [6]: > 20 µM (inactive)

CCOC(=O)C1=C(c2ccccc2)O/C(=C(\C(=O)OC)C(F)(F)F)S1
IC50 [6]: > 20 µM (inactive)

OCCN1CCN(Cc2ccc3ccccc3c2)CC1
IC50 [3]: 95.6 µM (active)

COc1cc(-c2nc3cnccn3c2Nc2ccc(C)cc2)ccc1O
IC50 [3]: 29.3 µM (active)

Cc1nnc2n(Cc3ccccc3)c(=O)c3c4c(sc3n12)COC(C(C)C)C4 (configuration not stated)
EC50 [1]: > 112 µM (not active) | CC50 [7]: 31.3 µM (active) | EC50 [2]: > 112 µM (not active)

Cc1cc(C(=O)COc2ccc3ccc(=O)oc3c2)c(C)n1Cc1cccs1
IC50 [8]: 6.2 µM (active)

C=CCOc1ccc(/C=C\c2nc(O)c([N+](=O)[O-])c(O)n2)cc1OC
IC50 [8]: 13.7 µM (active)

CCCCCc1cc(=O)oc2c(C(CCN3CCCC3)c3cc(OC)c(OC)c(OC)c3)c(OC)cc(OC)c12 (configuration not stated)
IC50 [6]: > 20 µM (inactive)

Cc1cc(C)nc(SCc2nnc(SCc3ccc([N+](=O)[O-])cc3)n2Cc2ccco2)n1
IC50 [4]: > 47.1 µM (inactive) | EC50 [5]: > 53 µM (inactive)

COc1ccc(F)cc1S(=O)(=O)NCC(=O)NCc1cc(=O)n(C)c(=O)n1C
IC50 [4]: > 47.1 µM (inactive) | EC50 [5]: > 53 µM (inactive)

COC(=O)c1oc2ccc(Br)cc2c1-n1cccc1
EC50 [1]: > 112 µM (not active) | EC50 [2]: > 112 µM (not active)

Cc1cc(-c2nnc(CCC(=O)NC(C)c3cccc4ccccc34)o2)no1 (configuration not stated)
EC50 [1]: > 112 µM (not active) | EC50 [2]: > 112 µM (not active)

Cc1c(CC(=O)O)c(=O)oc2c(C)c3occ(-c4ccc(Br)cc4)c3cc12
IC50 [8]: 7.37 µM (active)

Cc1cc(OC(C)C(=O)NCc2ccncc2)c2c3c(c(=O)oc2c1)CCC3 (configuration not stated)
EC50 [1]: > 112 µM (not active) | EC50 [2]: > 112 µM (not active)

CCOc1ccc(N)cc1OC
IC50 [3]: 42.9 µM (active)

C#CCOCCOCCOCCNc1nc(N2CCOCC2)nc(N2CCN(C(=O)CCCCCCCCCCNC(=O)[C@H](CO)n3cc(CCCCCN)nn3)CC2)n1
IC50 [6]: > 20 µM (inactive)

Cc1cc(C=C2C(=O)NC(=S)NC2=O)c(C)n1C1CCCC1
IC50 (cells): 10.4 µM (active) | CC50 [9]: > 40 µM (active)

COC(=O)c1cc(NCc2ccccc2F)ccc1N1CCOCC1
IC50 [3]: 168 µM (active)

CC(C)=CCOc1ccc([C@@H]2COc3c(ccc4c3C=CC(C)(C)O4)C2)c(O)c1
EC50 (Streptokinase A): > 150 µM (not active) | EC50 [10]: 2.28 µM (active) | CC50 [9]: > 40 µM (active) | AC50 [11]: 3.44 µM (active) | EC50 (Streptococcus): 2.25 µM (active)

COC(=O)C1=C(C)N(Cc2ccccc2)C(NCc2cc(OC)c(OC)c(OC)c2)=N[C@H]1c1ccc(Br)cc1
IC50 [6]: > 20 µM (inactive)

COC(=O)c1sc(N)c(C(=O)OC)c1COC(=O)CNS(=O)(=O)c1ccc(C)cc1
EC50 [1]: > 112 µM (not active) | EC50 [2]: > 112 µM (not active)

O=C1NC2(CCCCCC2)N=C1c1ccc(Br)cc1
IC50 [6]: > 20 µM (inactive)

O=C(Nc1cc(S(=O)(=O)N2CCCCC2)ccc1Cl)C1COc2ccccc2O1 (configuration not stated)
IC50 [8]: 46.4 µM (active)

Cc1ncc(CO)c(/C=N/NC(=S)Nc2ccc(Cl)c(Cl)c2)c1O
EC50 (Streptokinase A): > 150 µM (not active) | EC50 [12]: 45.4 µM (inconclusive) | EC50 [10]: 4.1 µM (active) | EC50 [13]: > 38 µM (not active) | EC50 (Streptococcus): 91.4 µM (active) | IC50 [6]: > 20 µM (inactive)

C[C@@H]1CN([C@@H](C)CO)C(=O)c2ccccc2-c2ccccc2CO[C@@H]1CN(C)Cc1ccc2c(c1)OCCN2C
AC50 (Paired box protein Pax-8): 29.5 µM (active)

C[C@H](CO)N1C[C@H](C)[C@@H](CN(C)Cc2ccc(Cl)c(Cl)c2)OCCCC[C@H](C)Oc2ccc(NC(=O)Nc3ccc(C(F)(F)F)cc3)cc2C1=O
AC50 (Paired box protein Pax-8): 4.17 µM (active)

Cc1ccc(C2=[N+]([O-])C3(CCCCC/C3=N\O)N(O)C2(C)C)o1 (configuration not stated)
EC50 [1]: > 112 µM (not active) | EC50 [2]: > 112 µM (not active)

O=C(Cc1ccccc1)N/N=C/c1ccc(OCC(=O)Nc2ccccc2)cc1
IC50 [8]: 10.2 µM (active)

N#CCSc1nc2sccc2c(=O)n1-c1ccccc1
IC50 [4]: > 47.1 µM (inactive) | EC50 [5]: > 53 µM (inactive)
